Test results taken from ChEMBL document CHEMBL1201862, “PubChem BioAssay data set” (2004).
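48-hour exposure; five concentrations; linearly interpolated endpoints. GI50 = concentration required for 50% inhibition of growth.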 Active and inactive are the calls of the source. Rule as the data show it: active = GI50 up to about 1.1 µM and inactive = higher. Starred links: 1 amine or outer side, 2 acyl side, 3 side chain; linkers in the order of their positions; H or OH if unused. Positions of bridges follow the written chain, without caps; N, C: chain ends. Where a SMILES comes first, the peptide text is derived from it. Non-standard residues stand in square brackets, D forms with d. Residues, ends and D or L forms follow the SMILES beside them. [ ]: non-standard residue; d: D form. ξ: configuration not given here. *: point of attachment. γ4hArg(2R,3R-(OH)2) = N=C(N)NCCC[C@H](N[*:1])[C@@H](O)[C@@H](O)C(=O)[*:2]; Gln(3S,4R-Me2) = C[C@H]([C@H](N)C(=O)O)[C@@H](C)C(N)=O; X50 = CC(C)C[C@H](C)[C@@H](O)[C@@H](C)C(=O)*; X51 = COC(c1ccc(O)cc1)C(N[*:1])C(=O)[*:2]; ξThz(5,5-Me2) = CC1(C)SCNC1C(=O)O; NMeQ = CN[C@@H](CCC(N)=O)C(=O)O; Thr(3ξ) = CC(O)[C@H](N)C(=O)O; NMeA = CN[C@@H](C)C(=O)O; Cbz = O=C(OCc1ccccc1)*; Aib = CC(C)(N)C(=O)O; OBn = c1ccc(CO*)cc1; βAla = NCCC(=O)O

Columns and labels:
Test in all cases: NCI tumour cell line growth inhibition, 48 h
IGROV-1 = tested on: IGROV-1
MDA-N = tested on: MDA-N
OVCAR-3 = tested on: OVCAR-3
K562 = tested on: K562
DU-145 = tested on: DU-145
NCI-H23 = tested on: NCI-H23
TK-10 = tested on: TK-10
SF-268 = tested on: SF-268
SNB-19 = tested on: SNB-19
SR = tested on: SR
MOLT-4 = tested on: MOLT-4
MDA-MB-435 = tested on: MDA-MB-435
SF-539 = tested on: SF-539
PC-3 = tested on: PC-3
COLO 205 = tested on: COLO 205
Hs-578T = tested on: Hs-578T
OVCAR-8 = tested on: OVCAR-8
A549 = tested on: A549
HCT-116 = tested on: HCT-116
UACC-257 = tested on: UACC-257

Compound | GI50 (IGROV-1) | GI50 (MDA-N) | GI50 (OVCAR-3) | GI50 (K562) | GI50 (DU-145) | GI50 (NCI-H23) | GI50 (TK-10) | GI50 (SF-268) | GI50 (SNB-19) | GI50 (SR) | GI50 (MOLT-4) | GI50 (MDA-MB-435) | GI50 (SF-539) | GI50 (PC-3) | GI50 (COLO 205) | GI50 (Hs-578T) | GI50 (OVCAR-8) | GI50 (A549) | GI50 (HCT-116) | GI50 (UACC-257)
CC1=[N+](C)CCN1C | > 100 µM (inactive) | > 100 µM (inactive) | > 100 µM (inactive) | > 100 µM (inactive) | > 100 µM (inactive) | > 100 µM (inactive) | > 100 µM (inactive) | > 100 µM (inactive) | > 100 µM (inactive) | > 100 µM (inactive) | > 100 µM (inactive) | > 100 µM (inactive) | > 100 µM (inactive) | > 100 µM (inactive) | > 100 µM (inactive) | > 100 µM (inactive) | > 100 µM (inactive) | > 100 µM (inactive) | > 100 µM (inactive) | > 100 µM (inactive)
COC(c1ccc(O)cc1)C1NC(=O)[C@H](CCC(N)=O)N(C)C(=O)[C@H](CC(C)C)NC(=O)[C@@H](CCCN=C(N)N)NC(=O)[C@H](C(C)O)NC(=O)[C@@H](NC(=O)[C@@H](NC(=O)[C@H](O)[C@H](O)[C@H](CCCN=C(N)N)NC(=O)[C@H](C)NC(=O)[C@H](C)[C@H](O)[C@@H](C)CC(C)C)[C@@H](C)[C@@H](C)C(N)=O)[C@@H](C)OC(=O)[C@H](C)N(C)C1=O (stereo partly drawn) (X50-A[γ4hArg(2R,3R-(OH)2)][Gln(3S,4R-Me2)]T[Thr(3ξ)][dR]L[NMeQ][X51][NMeA]; ester 4-C) | 0.0746 µM (active) | 0.135 µM (active) | 0.083 µM (active) | 0.0847 µM (active) | 0.0764 µM (active) | 0.0944 µM (active) | 0.146 µM (active) | 0.0525 µM (active) | 0.0929 µM (active) | 0.143 µM (active) | 0.139 µM (active) | 0.145 µM (active) | 0.0859 µM (active) | 0.187 µM (active) | 0.0881 µM (active) | 0.0405 µM (active) | 0.0889 µM (active) | 0.141 µM (active) | 0.281 µM (active) | 0.113 µM (active)
NS(=O)(=O)c1ccc(NC(=S)NC(=O)Nc2ccc(Cl)c(Cl)c2)cc1 | 19.3 µM (inactive) | 14.6 µM (inactive) | 18.5 µM (inactive) | 4.55 µM (inactive) | 15.5 µM (inactive) | 16 µM (inactive) | 25.1 µM (inactive) | 12.8 µM (inactive) | 11.9 µM (inactive) | < 0.01 µM (active) | 7.6 µM (inactive) | 14.4 µM (inactive) | 18.2 µM (inactive) | 12.9 µM (inactive) | 14 µM (inactive) | 25.1 µM (inactive) | 18.4 µM (inactive) | 14.4 µM (inactive) | 13.4 µM (inactive) | 17.9 µM (inactive)
O=c1[nH]c2nc3ccccc3c(=O)n2/c1=C/c1ccco1 | > 100 µM (inactive) | > 100 µM (inactive) | > 100 µM (inactive) | > 100 µM (inactive) | > 100 µM (inactive) | > 100 µM (inactive) | > 100 µM (inactive) | > 100 µM (inactive) | > 100 µM (inactive) | > 100 µM (inactive) | > 100 µM (inactive) | > 100 µM (inactive) | > 100 µM (inactive) | > 100 µM (inactive) | > 100 µM (inactive) | > 100 µM (inactive) | > 100 µM (inactive) | > 100 µM (inactive) | > 100 µM (inactive) | > 100 µM (inactive)
CC1(C)NC(=O)C(NC(=O)C(CC(=O)OCc2ccccc2)NC(=O)OCc2ccccc2)CCCCNC(=O)CCNC1=O (stereo not given) (Cbz-D(OBn)K[Aib][βAla]; lactam 2-C; configuration not given here) | > 100 µM (inactive) | > 100 µM (inactive) | > 100 µM (inactive) | > 100 µM (inactive) | > 100 µM (inactive) | > 100 µM (inactive) | > 100 µM (inactive) | > 100 µM (inactive) | > 100 µM (inactive) | > 10 µM (inactive) | > 100 µM (inactive) | > 100 µM (inactive) | > 100 µM (inactive) | > 100 µM (inactive) | > 100 µM (inactive) | > 100 µM (inactive) | > 100 µM (inactive) | > 100 µM (inactive) | > 100 µM (inactive) | –
CSCC[C@H](NC(=O)[C@H](CC(C)C)NC(=O)[C@H](Cc1c[nH]cn1)NC(=O)CNC(=O)C1N(C(=O)[C@@H](C)NC(=O)[C@H](Cc2c[nH]c3ccccc23)NC(=O)[C@H](CCC(N)=O)NC(=O)[C@@H](N)CC(N)=O)CSC1(C)C)C(N)=O (stereo not given in full) (H-NQW[dA][ξThz(5,5-Me2)]GHLM-NH2) | > 25 µM (inactive) | > 25 µM (inactive) | > 25 µM (inactive) | > 25 µM (inactive) | > 25 µM (inactive) | > 25 µM (inactive) | > 25 µM (inactive) | > 25 µM (inactive) | > 25 µM (inactive) | > 25 µM (inactive) | > 25 µM (inactive) | > 25 µM (inactive) | > 25 µM (inactive) | > 25 µM (inactive) | > 25 µM (inactive) | > 25 µM (inactive) | > 25 µM (inactive) | > 25 µM (inactive) | > 25 µM (inactive) | > 25 µM (inactive)
COc1ccc(OC)c(/C=C/c2ccnc3ccccc23)c1 | 0.822 µM (active) | 0.156 µM (active) | 0.269 µM (active) | 0.191 µM (active) | 0.525 µM (active) | 0.346 µM (active) | 1.61 µM (inactive) | 0.647 µM (active) | 0.631 µM (active) | 0.277 µM (active) | 0.519 µM (active) | 0.167 µM (active) | 0.21 µM (active) | 0.514 µM (active) | 0.277 µM (active) | 0.34 µM (active) | 0.191 µM (active) | 0.735 µM (active) | 0.377 µM (active) | 0.513 µM (active)
Cc1nc2c(n1CCCl)C(=O)c1ccccc1C2=O | 11.6 µM (inactive) | 18.7 µM (inactive) | 25.4 µM (inactive) | 16 µM (inactive) | 35.4 µM (inactive) | 29.9 µM (inactive) | 26.7 µM (inactive) | 22 µM (inactive) | 39.1 µM (inactive) | 28.8 µM (inactive) | 12.9 µM (inactive) | 15.3 µM (inactive) | 31.4 µM (inactive) | 8.43 µM (inactive) | 14 µM (inactive) | 20.1 µM (inactive) | 17.9 µM (inactive) | 33.7 µM (inactive) | 16.1 µM (inactive) | 14.1 µM (inactive)
NC1=NCC(CN2CCCC2)O1 (stereo not given) | > 100 µM (inactive) | > 100 µM (inactive) | > 100 µM (inactive) | > 100 µM (inactive) | > 100 µM (inactive) | > 100 µM (inactive) | > 100 µM (inactive) | > 100 µM (inactive) | > 100 µM (inactive) | > 100 µM (inactive) | > 100 µM (inactive) | > 100 µM (inactive) | > 100 µM (inactive) | > 100 µM (inactive) | > 100 µM (inactive) | > 100 µM (inactive) | > 100 µM (inactive) | > 100 µM (inactive) | > 100 µM (inactive) | > 100 µM (inactive)
COc1ccc(C(Nc2ccccn2)c2cc(C(C)(C)C)cc(C(C)(C)C)c2O)cc1 (stereo not given) | 24 µM (inactive) | 20.7 µM (inactive) | 11.4 µM (inactive) | 55 µM (inactive) | 7.76 µM (inactive) | 17.1 µM (inactive) | 49.7 µM (inactive) | 5.65 µM (inactive) | 61 µM (inactive) | 10.1 µM (inactive) | – | 17.4 µM (inactive) | 48.1 µM (inactive) | 21.8 µM (inactive) | 19 µM (inactive) | 6.07 µM (inactive) | 43.4 µM (inactive) | 30 µM (inactive) | 12.6 µM (inactive) | 26.2 µM (inactive)
COc1ccc2c(c1[N+](=O)[O-])CC[C@@H]1[C@@H]2CC[C@]2(C)C(=O)CC[C@@H]12 | > 18 µM (inactive) | > 925 µM (inactive) | > 25 µM (inactive) | 24.9 µM (inactive) | > 25 µM (inactive) | > 25 µM (inactive) | > 25 µM (inactive) | > 25 µM (inactive) | 24.2 µM (inactive) | > 1000 µM (inactive) | > 25 µM (inactive) | > 25 µM (inactive) | > 25 µM (inactive) | 22 µM (inactive) | 21.8 µM (inactive) | 17.1 µM (inactive) | > 25 µM (inactive) | > 25 µM (inactive) | 20.3 µM (inactive) | > 25 µM (inactive)
C1CCNCC1.S=C(S)N1CCCCC1 | 5.96 µM (inactive) | 13.1 µM (inactive) | 71 µM (inactive) | 0.601 µM (active) | 140 µM (inactive) | 62.2 µM (inactive) | 135 µM (inactive) | 75.7 µM (inactive) | 149 µM (inactive) | 0.46 µM (active) | – | 199 µM (inactive) | 80.7 µM (inactive) | 37.7 µM (inactive) | – | 163 µM (inactive) | 61.1 µM (inactive) | 0.632 µM (active) | 14.1 µM (inactive) | 28.4 µM (inactive)
C=C(Cl)C(C)(Cl)CCC(Br)C(C)(C)Cl (stereo not given) | 28.8 µM (inactive) | 15.8 µM (inactive) | 18.2 µM (inactive) | 33.9 µM (inactive) | 20.9 µM (inactive) | 19.1 µM (inactive) | > 100 µM (inactive) | 33.2 µM (inactive) | 51.5 µM (inactive) | 21.9 µM (inactive) | 28.4 µM (inactive) | 19.4 µM (inactive) | 27.8 µM (inactive) | 25.6 µM (inactive) | 17.3 µM (inactive) | 21.2 µM (inactive) | – | 29.9 µM (inactive) | 15.2 µM (inactive) | 15.9 µM (inactive)
